Test results published in ChEMBL document CHEMBL1201862, “PubChem BioAssay data set” (2004).
Calls of active or inactive are those of the source.

Columns and labels:
fMet-Leu-Phe receptor = target: T1, fMet-Leu-Phe receptor (Homo sapiens, UniProt P21462); assay: formyl peptide receptor binders – dose response (AID 519); format: functional
T1 sequence (P21462 whole entry): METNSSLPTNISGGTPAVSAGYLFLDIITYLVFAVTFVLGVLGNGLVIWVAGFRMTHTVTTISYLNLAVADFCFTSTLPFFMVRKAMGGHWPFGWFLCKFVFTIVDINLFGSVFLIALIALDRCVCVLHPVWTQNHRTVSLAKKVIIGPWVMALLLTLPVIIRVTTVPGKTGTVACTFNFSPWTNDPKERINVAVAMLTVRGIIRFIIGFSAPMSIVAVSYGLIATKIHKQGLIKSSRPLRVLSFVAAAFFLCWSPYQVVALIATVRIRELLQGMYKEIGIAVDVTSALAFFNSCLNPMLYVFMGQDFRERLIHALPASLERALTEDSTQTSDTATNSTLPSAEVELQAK

cells = format: functional, cell-based; conditions: HEK-CNG
Galanin receptor type 3 = target: T2, Galanin receptor type 3 (Homo sapiens, UniProt O60755); assay: Fluorescence-based cell-based primary high throughput dose response assay to identify antagonists of the Galanin Receptor 3 (GalR3).; format: functional
T2 sequence (O60755 whole entry): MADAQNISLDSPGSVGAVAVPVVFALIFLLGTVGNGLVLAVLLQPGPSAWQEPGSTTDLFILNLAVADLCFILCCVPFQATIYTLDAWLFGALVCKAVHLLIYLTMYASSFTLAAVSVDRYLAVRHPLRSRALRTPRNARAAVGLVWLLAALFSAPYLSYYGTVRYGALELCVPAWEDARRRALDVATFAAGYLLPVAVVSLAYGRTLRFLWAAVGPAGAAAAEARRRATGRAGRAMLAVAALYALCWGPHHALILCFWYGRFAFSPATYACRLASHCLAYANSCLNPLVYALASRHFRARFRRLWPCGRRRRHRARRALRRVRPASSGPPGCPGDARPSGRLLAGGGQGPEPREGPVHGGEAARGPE

[1] = target: T3, Corticotropin-releasing factor receptor 2/Corticotropin-releasing factor-binding protein (Homo sapiens, UniProt P24387+Q13324); assay: activators of CRF receptor 2 with binding protein – uHTS hits, confirmation (AID 602473); format: functional; conditions: read-out: EC50_Mean
T3 sequence (Q13324 whole entry): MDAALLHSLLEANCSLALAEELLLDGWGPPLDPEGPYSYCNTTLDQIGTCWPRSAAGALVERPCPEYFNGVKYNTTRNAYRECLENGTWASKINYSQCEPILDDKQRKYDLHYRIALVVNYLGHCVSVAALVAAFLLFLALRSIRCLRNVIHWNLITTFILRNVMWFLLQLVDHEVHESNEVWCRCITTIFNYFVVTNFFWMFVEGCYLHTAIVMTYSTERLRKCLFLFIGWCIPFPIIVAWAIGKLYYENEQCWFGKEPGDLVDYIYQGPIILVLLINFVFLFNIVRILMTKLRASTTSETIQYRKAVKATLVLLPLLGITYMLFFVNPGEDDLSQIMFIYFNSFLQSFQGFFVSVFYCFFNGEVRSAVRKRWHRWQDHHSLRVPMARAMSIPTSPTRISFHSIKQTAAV
T3 sequence (P24387 whole entry): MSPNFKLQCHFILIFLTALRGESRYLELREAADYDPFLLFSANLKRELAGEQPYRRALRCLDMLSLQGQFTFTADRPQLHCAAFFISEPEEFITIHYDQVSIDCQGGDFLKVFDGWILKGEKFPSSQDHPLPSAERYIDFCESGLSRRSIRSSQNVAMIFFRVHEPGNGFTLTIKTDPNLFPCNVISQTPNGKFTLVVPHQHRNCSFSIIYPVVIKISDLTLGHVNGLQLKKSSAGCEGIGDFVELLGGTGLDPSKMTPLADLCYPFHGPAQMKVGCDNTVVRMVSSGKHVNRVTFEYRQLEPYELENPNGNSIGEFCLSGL

[2] = target: T3, Corticotropin-releasing factor receptor 2/Corticotropin-releasing factor-binding protein; assay: Dose Response confirmation of uHTS hits for small molecule antagonists of the CRF-binding protein and CRF-R2 receptor complex.; format: functional; conditions: read-out: IC50_Mean
Beta-galactosidase = Beta-galactosidase (Escherichia coli, UniProt Q8VNN2); assay: Dose response counterscreen for EBI2 assay utilizing the enzyme, b-galactosidase.; format: functional
Beta-galactosidase, sequence (Q8VNN2 whole entry): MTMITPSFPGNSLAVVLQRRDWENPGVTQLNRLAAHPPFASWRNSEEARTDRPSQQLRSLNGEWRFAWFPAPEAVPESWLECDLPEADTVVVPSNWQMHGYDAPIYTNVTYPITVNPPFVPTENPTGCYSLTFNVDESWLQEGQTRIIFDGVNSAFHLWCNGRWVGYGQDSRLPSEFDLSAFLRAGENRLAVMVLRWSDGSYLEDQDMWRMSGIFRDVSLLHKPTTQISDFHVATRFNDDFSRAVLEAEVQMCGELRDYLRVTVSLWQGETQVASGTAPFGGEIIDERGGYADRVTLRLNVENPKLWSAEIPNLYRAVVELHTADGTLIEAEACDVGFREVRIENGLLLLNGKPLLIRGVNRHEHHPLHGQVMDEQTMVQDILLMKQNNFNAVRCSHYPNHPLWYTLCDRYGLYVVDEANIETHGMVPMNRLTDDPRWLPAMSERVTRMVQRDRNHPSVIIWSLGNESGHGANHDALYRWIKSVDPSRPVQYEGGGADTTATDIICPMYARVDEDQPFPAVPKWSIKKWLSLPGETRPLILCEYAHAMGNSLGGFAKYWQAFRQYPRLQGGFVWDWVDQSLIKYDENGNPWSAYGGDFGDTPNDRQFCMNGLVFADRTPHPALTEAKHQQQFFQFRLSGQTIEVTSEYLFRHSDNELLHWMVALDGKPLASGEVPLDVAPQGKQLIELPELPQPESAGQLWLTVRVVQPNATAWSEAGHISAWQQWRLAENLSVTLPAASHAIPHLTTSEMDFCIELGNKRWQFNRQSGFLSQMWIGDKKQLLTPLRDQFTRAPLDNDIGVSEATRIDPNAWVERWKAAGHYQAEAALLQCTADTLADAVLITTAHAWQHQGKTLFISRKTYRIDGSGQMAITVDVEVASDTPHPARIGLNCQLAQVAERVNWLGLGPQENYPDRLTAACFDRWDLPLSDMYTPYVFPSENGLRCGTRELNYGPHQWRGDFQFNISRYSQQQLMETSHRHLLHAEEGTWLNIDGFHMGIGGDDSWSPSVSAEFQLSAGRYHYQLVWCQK

Cytochrome P450 3A4 = Cytochrome P450 3A4 (Homo sapiens, UniProt P08684);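 also: CYP3A4 tested as one member of a cytochrome P450 panel screen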
Cytochrome P450 3A4, sequence (P08684 whole entry): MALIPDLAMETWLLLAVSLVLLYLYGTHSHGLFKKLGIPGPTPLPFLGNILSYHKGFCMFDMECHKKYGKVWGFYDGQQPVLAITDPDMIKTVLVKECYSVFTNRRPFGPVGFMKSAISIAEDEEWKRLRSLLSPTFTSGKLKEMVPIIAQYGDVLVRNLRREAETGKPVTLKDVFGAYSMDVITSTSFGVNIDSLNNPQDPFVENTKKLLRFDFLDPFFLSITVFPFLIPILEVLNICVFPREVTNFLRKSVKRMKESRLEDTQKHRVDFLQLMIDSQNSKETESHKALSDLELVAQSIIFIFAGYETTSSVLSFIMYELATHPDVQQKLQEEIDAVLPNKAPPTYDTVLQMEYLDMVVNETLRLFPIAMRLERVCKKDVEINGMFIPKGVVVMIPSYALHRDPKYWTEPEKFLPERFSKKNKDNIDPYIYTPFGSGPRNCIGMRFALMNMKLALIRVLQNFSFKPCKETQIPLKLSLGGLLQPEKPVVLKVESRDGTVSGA

Cytochrome P450 1A2 = target: T4, Cytochrome P450 1A2 (Homo sapiens, UniProt P05177);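 also: PubChem cytochrome P450 panel assay, CYP1A2 panel member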
T4 sequence (P05177 whole entry): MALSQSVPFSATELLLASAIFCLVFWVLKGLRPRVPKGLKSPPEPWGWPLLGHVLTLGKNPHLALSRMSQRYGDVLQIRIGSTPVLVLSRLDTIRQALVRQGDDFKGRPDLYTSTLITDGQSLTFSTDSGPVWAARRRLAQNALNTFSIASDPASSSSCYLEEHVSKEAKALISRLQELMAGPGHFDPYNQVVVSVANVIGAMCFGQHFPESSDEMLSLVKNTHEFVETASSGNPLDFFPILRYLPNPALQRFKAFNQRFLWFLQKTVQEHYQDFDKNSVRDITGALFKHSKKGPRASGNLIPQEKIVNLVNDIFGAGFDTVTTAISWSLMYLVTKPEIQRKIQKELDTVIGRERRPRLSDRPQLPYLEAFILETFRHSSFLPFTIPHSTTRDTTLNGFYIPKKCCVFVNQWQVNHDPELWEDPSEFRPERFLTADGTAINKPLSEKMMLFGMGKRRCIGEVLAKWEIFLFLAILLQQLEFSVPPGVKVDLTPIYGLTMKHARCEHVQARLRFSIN

[3] = target: Luciferin 4-monooxygenase (Photinus pyralis, UniProt P08659); assay: inhibition of purified Photinus pyralis luciferase – biochemical, luminescence, dose response (AID 1891)
Luciferin 4-monooxygenase, sequence (P08659 whole entry): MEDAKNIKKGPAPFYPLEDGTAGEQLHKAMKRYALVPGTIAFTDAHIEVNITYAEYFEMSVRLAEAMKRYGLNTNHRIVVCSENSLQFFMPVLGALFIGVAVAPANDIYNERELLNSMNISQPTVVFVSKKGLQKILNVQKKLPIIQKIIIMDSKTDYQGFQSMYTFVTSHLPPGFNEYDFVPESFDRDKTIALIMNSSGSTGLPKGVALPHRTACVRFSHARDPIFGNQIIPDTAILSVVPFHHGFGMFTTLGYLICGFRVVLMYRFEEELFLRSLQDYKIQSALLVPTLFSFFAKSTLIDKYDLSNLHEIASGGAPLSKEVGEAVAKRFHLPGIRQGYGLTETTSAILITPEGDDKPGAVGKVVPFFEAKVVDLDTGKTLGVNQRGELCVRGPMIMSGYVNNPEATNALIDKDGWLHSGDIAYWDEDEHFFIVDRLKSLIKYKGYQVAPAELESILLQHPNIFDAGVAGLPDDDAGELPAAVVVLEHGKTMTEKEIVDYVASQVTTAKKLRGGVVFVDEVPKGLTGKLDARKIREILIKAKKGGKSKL

[4] = Luminescence Cell-Based Dose Confirmation HTS to Identify Inhibitors of Platelet Dense Granule Release. [Related pubchem assays: 1663 (Primary HTS), 1678 (Summary of Project)]; format: functional

In the case of `Cc1ccc(C2C3=C(O)CC(C)(C)CC3=Nc3nc(S)nc(O)c32)cc1` (stereo not drawn), the Ki (fMet-Leu-Phe receptor) is reported as 47.9 µM (inactive).

For `COc1ccc(-n2c(C)cc(C(=O)COC(=O)Cn3cnc4ccccc43)c2C)cc1`, the EC50 (cells) was > 29.9 µM (inactive) and the IC50 (Galanin receptor type 3) was 0.762 µM (active).

With `COc1ccc(N2CCN(C(=O)c3cc(=O)c4cc(C)c(C)cc4o3)CC2)cc1` the EC50 [1] was > 53 µM (inactive), the IC50 [2] was > 47.1 µM (inactive) and the IC50 (Beta-galactosidase) was > 80 µM (inactive).

For `COc1ccc(CCN2C(=O)C(O)=C(C(=O)c3ccco3)C2c2cccs2)cc1OC` (stereo not drawn), the Ki (fMet-Leu-Phe receptor) was 19 µM (inactive), the AC50 (Cytochrome P450 3A4) was 25.1 µM (inconclusive) and the AC50 (Cytochrome P450 1A2) was 31.6 µM (inconclusive).

In the case of `O=C(c1cc2cc(F)ccc2[nH]1)N1CCN(Cc2ccc3c(c2)OCO3)CC1`, the EC50 [3] is reported as > 112 µM (not active), the IC50 (Beta-galactosidase) is reported as > 80 µM (inactive) and the EC50 [4] is reported as > 112 µM (not active).

In the case of `CCC(=O)Nc1c(C#N)c2nc3ccccc3nc2n1-c1ccccc1C`, the Ki (fMet-Leu-Phe receptor) is reported as 12 µM (active).
